Results taken from patent US7179632B2, “Process for the production of allicin” (Neem Biotech Ltd., priority 2001, dated 2007).

Assay: Storage stability of allicin in aqueous solution
Assay type: physicochemical

C=CCS[S+]([O-])CC=C (centres unmarked) [allicin, thio-2-propene-1-sulfinic acid S-allyl ester]
stability in solution (0.5% solution at −40° C., filtered to remove impurities): reasonably stable
stability in solution (concentrations above 0.5% solution in water): extremely unstable
effect of pH on stability (diluted solution, pH controlled to approximately pH 4.5): increases the stability
stability on storage (non-extracted solution diluted to approximately 'it' allicin, stored below −20° C.): stable for several months
stability in solution (solution of up to 1.0% v/v allicin): unstable
